Laboratory results taken from patent publication US8653138B2, “Calcium salts of compounds as anti-inflammatory, immunomodulatory and anti-proliferatory agents” (4SC MG, priority 2010, dated 2014).
≈ marks a conversion by molar mass, not a printed value. Structures can show the parent of a compound that is named as a salt.

What was measured:
[1] = Aqueous solubility (OECD Guideline 105); assay type: physicochemical; settings: water, 24 h at 23° C., HPLC-UV
Experimental: Aqueous solubilities of Vidofludimus free acid (2-(3-Fluoro-3′-methoxybiphenyl-4-ylcarbamoyl)-cyclopent-1-enecarboxylic acid), its potassium salt and its Calcium salt were examined. The principle of the method was based on the OECD Guideline for the testing of chemicals, 105 “Water Solubility”. 2 mg of the experimental compounds were weighed into Eppendorf vials of 1.5 ml. Subsequently, water was added to arrive at a concentration of 5 mg/ml. After preparation of the solubility samples they were incubated for 24 h at 23° C. under continuous shaking. Then the samples were centrifuged to separate the precipitate from the dissolved compound. The supernatants were transferred into labelled HPLC vials for quantification by HPLC-UV. Finally, these HPLC samples were analysed on the HPLC-UV System and their contents were calculated from the calibration curves, The concentration of compound in the supernatant equals its solubility in water. The following aqueous solubilities were found for Vidofludimus free acid and its potassium-and calcium salt: […]

[2] = Dynamic vapor sorption (DVS); assay type: physicochemical
Excerpt: DVS (SMS): Surface Measurement Systems Ltd. DVS-1 water vapour sorption analyzer. The sample is placed on a platinum sample pan and allowed to equilibrate at a given relative humidity (r.h.), usually 50% r.h. Then, a pre-defined humidity program was started with a scanning rate of 5% r.h. change per hour. First step: from 50% r.h. to 0% r.h, (in case of a possibly hydrate as starting material 50 to 95% r.h.), second step: from 0% to 95% r.h. (in case of a possibly hydrate as starting material 95 to 0% r.h.)

recombinant human DHODH = molecular target: T1, recombinant human DHODH (Homo sapiens, UniProt Q02127); experiment: Inhibition assay of DHODH activity, human enzyme; assay type: biochemical; settings: class symbol (head prints μM, key in nM)
T1 construct: provided by Prof; M. Löffler, Marburg, Germany (gift, not a commercial vendor)
Experimental: The standard assay mixture contained 50 μM decyclo ubichinone, 100 μM dihydroorotate, 60 μM 2,6-dichloroindophenol, as well as 20 mU DHODH. The volume activity of the recombinant enzyme used was 30 U/ml. Measurements were conducted in 50 mM TrisHCl (150 mM KCl, 0.1% Triton X-100, pH 8.0) at 30° C. in a final volume of 1 ml. The components were mixed, and the reaction was started by adding dihydroorotate. The course of reaction was followed by spectrophotometrically measuring the decrease in absorption at 600 nm for 2 min.
Inhibitory studies were conducted in a standard assay with additional variable amounts of inhibitor.
These investigations were carried out with recombinant human as well as with recombinant murine DHODH provided by Prof. M. Löffler, Marburg, Germany [M. Löffler, Chem. Biol. Interact.

T1 sequence (Q02127 whole entry): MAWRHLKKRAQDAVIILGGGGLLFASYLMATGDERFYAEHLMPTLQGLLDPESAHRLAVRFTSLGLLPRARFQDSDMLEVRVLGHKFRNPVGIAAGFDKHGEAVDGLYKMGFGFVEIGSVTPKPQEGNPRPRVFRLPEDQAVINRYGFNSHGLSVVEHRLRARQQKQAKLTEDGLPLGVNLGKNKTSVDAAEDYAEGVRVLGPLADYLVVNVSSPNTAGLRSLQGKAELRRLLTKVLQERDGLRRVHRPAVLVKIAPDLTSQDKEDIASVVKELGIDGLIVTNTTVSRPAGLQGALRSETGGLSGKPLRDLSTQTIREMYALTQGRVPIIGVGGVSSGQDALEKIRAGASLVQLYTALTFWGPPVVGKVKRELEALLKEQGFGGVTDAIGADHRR

Row | SMILES | Solubility [1] [µg/mL] | IC50 (recombinant human DHODH) [µM] | further results
1 | COc1cccc(-c2ccc(NC(=O)C3=C(C(=O)O)CCC3)c(F)c2)c1 [Compound 26, 2-((3-fluoro-3′-methoxy-[1,1′-biphenyl]-4-yl)carbamoyl)cyclopent-1-enecarboxylic acid] |  |  | Solubility ([1]; listed as Vidofludimus free acid): 9.5 µg/mL (≈ 26.7 µM)
2 | COc1cccc(-c2ccc(NC(=O)C3=C(C(=O)O)CCC3)c(F)c2)c1 [Potassium salt] | 4700 |  | 
3 | COc1cccc(-c2ccc(NC(=O)C3=C(C(=O)O)CCC3)c(F)c2)c1 [Calcium salt, calcium salt of 2-(3-Fluoro-3′-methoxy-biphenyl-4-ylcarbamoyl)-cyclopent-1-enecarboxylic acid] | 16.2 |  | water uptake ([2]; at 95% r.h. (not reversible)): 0.4%; water uptake ([2]; at about 85% r.h., after desolvation): 0.3%
4 | COc1ccccc1-c1cc(Cl)c(NC(=O)C2=C(C(=O)O)CCC2)c(Cl)c1 [Compound 58, 2-((3,5-dichloro-2′-methoxy-[1,1′-biphenyl]-4-yl)carbamoyl)cyclopent-1-enecarboxylic acid] |  | < 0.8 | 
5 | COc1ccccc1-c1ccc(NC(=O)C2=C(C(=O)O)CCC2)c(C)c1 [Compound 57, 2-((2′-methoxy-3-methyl-[1,1′-biphenyl]-4-yl)carbamoyl)cyclopent-1-enecarboxylic acid] |  | < 0.8 | 
6 | O=C(O)C1=C(C(=O)Nc2ccc(OCc3ccccc3)c(Cl)c2)CCC1 [Compound 72] |  | < 0.8 | 
